In one assay the target is IGF-1R (Homo sapiens, UniProt P08069). Kind of assay: Kinase profiler screening, IGF-1R. It is filed as biochemical. To be noted: 1 μM compound, 10 μM ATP. Here is the method:
Kinase Profiler Screening: Kinase specificity screening was performed with Invitrogen's SelectScreen® Kinase Profiling Services http://www.invitrogen.com/site/us/en/home/Products-and-Services/Services/Discoverv-Research/SelectScreen-Profiling-Service/SelectScreen-Kinase-Profiling-Service.html. The screening was performed with 1 μM compound, INT2-31, 10 μM ATP, and kinase substrates against ten recombinant kinases according to Z′-LYTET™ Kinase Assay. For PI3 kinase activity, 100 μM ATP, and kinase substrate were utilized with the Invitrogen Adapta® Universal Kinase Assay protocol. Tumor Growth in Nude Mice in vivo: Six week old athymic, female nude mice were purchased from Harlan Laboratory. The mice were maintained in the animal facility, and all experiments were performed in compliance with NIH animal-use guidelines and under an IACUC approved protocol. Melanoma cells were injected, 5×10^6 cells, subcutaneously. When the tumor size reached 100 mm^3, the INT2-31 was introduced by intraperitoneal injection at a dose of 15 mg/kg daily for 21 days. Tumor diameters were measured with calipers, and tumor volume in mm^3 was calculated using the formula [(width)^2×length]/2. At the end of experiment, tumor weight and volume were determined.

In the next assay the target is T1, GST-FAK-NT2 and IGF-1Rβ (Homo sapiens, UniProt Q05397).
T1 construct: host or cells: E. coli BL21 (DE3) for GST-FAK-NT2
Kind of assay: Pull-down assay with purified GST-FAK-NT2 and IGF-1Rβ. Particulars: average IC50, pulldown; read-out: IC50, decrease in binding between purified GST-FAK-NT2 and IGF-1Rβ. The text has this: Computational Docking The crystal structures of the N-terminal domain of FAK (PDB code 2AL6) (22) and the kinase domain of IGF-1R(PDB 1P40A) (23) were utilized for in silico molecular modeling of their interaction as previously described. The three-dimensional coordinates of compound NSC344553 (INT2-31), obtained from the database of the National Cancer Institute, Developmental Therapeutics Program (NCI/DTP), were docked onto the predicted interface of the amino-terminus of FAK (amino acids 127-243) with the intracytoplasmic portion of IGF-1R (21). […] 100 orientations were created for NSC344553 in the target site and were scored using the computer program grid-based scoring function. […] The intermolecular energies for all configurations of NSC 344553 in binding to FAK-NT2 were calculated as the sum of electrostatic and van der Waals energies. These energy terms were evaluated as correlation functions, which were computed efficiently with Fast Fourier Transforms. […] Bound proteins were boiled in 6× Laemmli buffer and analyzed by SDS-PAGE and Western blotting. […] The intensity of the bands in the western blots was measured with scion image analysis software program. […]

1 compound from US20120107323A1, “KINASE PROTEIN BINDING INHIBITORS” (University of Florida, priority 2009, published 2012) can be followed below.

Structures are written as SMILES.

T1 sequence (Q05397 127-243): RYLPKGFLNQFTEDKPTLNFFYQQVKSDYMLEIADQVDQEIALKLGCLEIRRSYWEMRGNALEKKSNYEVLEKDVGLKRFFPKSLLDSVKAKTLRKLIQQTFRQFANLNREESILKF
Sequence of IGF-1R (P08069 31-1367): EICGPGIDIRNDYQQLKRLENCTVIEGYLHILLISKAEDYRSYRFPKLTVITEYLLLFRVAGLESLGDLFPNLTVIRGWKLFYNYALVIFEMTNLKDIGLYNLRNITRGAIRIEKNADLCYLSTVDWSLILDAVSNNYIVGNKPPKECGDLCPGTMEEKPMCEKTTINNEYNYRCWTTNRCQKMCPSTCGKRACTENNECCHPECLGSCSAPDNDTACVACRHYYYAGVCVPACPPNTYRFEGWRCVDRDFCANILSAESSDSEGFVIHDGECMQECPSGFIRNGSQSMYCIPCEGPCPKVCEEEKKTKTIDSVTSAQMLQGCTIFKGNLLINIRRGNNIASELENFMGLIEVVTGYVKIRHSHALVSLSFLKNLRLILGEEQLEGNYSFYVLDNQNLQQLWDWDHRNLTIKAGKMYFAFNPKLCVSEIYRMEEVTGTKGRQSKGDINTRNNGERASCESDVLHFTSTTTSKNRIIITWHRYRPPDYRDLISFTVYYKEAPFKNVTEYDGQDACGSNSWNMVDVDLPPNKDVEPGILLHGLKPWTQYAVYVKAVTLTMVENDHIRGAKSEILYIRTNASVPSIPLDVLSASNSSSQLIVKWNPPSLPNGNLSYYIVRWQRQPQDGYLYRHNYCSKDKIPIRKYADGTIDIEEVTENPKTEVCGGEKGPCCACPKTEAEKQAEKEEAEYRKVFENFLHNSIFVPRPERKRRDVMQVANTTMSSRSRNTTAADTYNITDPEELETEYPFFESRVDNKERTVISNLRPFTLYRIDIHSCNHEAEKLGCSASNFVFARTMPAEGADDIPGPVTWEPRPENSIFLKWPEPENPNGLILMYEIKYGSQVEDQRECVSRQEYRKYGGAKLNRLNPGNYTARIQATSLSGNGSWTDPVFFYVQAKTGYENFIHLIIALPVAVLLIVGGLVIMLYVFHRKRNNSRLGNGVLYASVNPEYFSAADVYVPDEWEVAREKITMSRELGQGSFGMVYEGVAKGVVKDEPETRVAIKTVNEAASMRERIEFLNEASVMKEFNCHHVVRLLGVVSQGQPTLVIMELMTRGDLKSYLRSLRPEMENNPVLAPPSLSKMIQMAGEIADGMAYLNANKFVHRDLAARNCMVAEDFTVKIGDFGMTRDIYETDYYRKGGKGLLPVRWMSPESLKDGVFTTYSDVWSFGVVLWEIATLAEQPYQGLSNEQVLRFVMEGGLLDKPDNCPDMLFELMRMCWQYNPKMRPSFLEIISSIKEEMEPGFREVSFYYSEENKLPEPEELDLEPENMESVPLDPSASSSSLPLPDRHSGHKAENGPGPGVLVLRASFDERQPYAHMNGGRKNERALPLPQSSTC

A word on the IC50: it is the midpoint of a concentration-inhibition curve. Take `CSc1ncnc2c1ccn2C1O[C@H](COP(=O)(O)O)[C@@H](O)[C@H]1O` (stereo partly drawn) [INT2-31, 4-(Methylthio)-7-(5-O-phosphono-D-ribofuranosyl)-{7H-Pyrrolo[2,3-d]pyrimidine}]: the “kinase activity of IGF-1R” value on IGF-1R is reported as “did not inhibit”. Also, at GST-FAK-NT2 and IGF-1Rβ, the IC50 was 3.96 µM.
